Reference: US20090029995A1, “HETERO BIARYL DERIVATIVES AS MATRIX METALLOPROTEINASE INHIBITORS” (WARNER-LAMBERT COMPANY, priority 2002, published 2009)

SMILES | melting point [°C]
O=C(O)c1ccc(CNC(=O)c2cccc(-c3nnn(Cc4ccc(F)cc4)n3)c2)cc1 [Example 6, 4-({3-[2-(4-Fluoro-benzyl)-2H-tetrazol-5-yl]-benzoylamino}-methyl)-benzoic acid] | 222 to 224
O=C(O)c1ccc(CNC(=O)c2cccc(-c3nnn(Cc4cccc(F)c4)n3)c2)cc1 [Example 8, 4-({3-[2-(3-Fluoro-benzyl)-2H-tetrazol-5-yl]-benzoylamino}-methyl)-benzoic acid] | 217 to 219
COC(=O)c1ccc(CNC(=O)c2cccc(-c3nnn(Cc4nccs4)n3)c2)cc1 [Example 9] | 158 to 160
C/C=C/Cn1nnc(-c2cccc(C(=O)NCc3ccc(C(=O)OC)cc3)c2)n1 [Example 10, 4-{[3-(2-But-2-enyl-2H-tetrazol-5-yl)-benzoylamino]-methyl}benzoic acid methyl ester] | 107 to 108
COc1ccc(Cn2nnc(-c3cccc(C(=O)NCc4nccs4)c3)n2)cc1 [Example 11, 3-[2-(4-Methoxy-benzyl)-2H-tetrazol-5-yl]-N-thiazol-2-ylmethyl-benzamide] | 143 to 145
COc1ccc(Cn2nnc(-c3cccc(C(=O)NCc4ccc(CN5CCOCC5)cc4)c3)n2)cc1 [Example 12, 3-[2-(4-Methoxy-benzyl)-2H-tetrazol-5-yl]-N-(4-morpholin-4-ylmethyl-benzyl)-benzamide] | 161 to 162
COc1ccc(Cn2nnc(-c3cccc(C(=O)NCc4ccc(F)c(Cl)c4)c3)n2)cc1 [Example 13, N-(3-Chloro-4-fluoro-benzyl)-3-[2-(4-methoxy-benzyl)-2H-tetrazol-5-yl]-benzamide] | 150 to 151
COc1ccc(Cn2nnc(-c3cccc(C(=O)NCc4cccc(C(F)(F)F)c4)c3)n2)cc1 [Example 14, 3-[2-(4-Methoxy-benzyl)-2H-tetrazol-5-yl]-N-(3-trifluoromethyl-benzyl)-benzamide] | 162 to 163
COc1ccc(Cn2nnc(-c3cccc(C(=O)NCc4ccc5nsnc5c4)c3)n2)cc1 [Example 15, N-2,1,3-Benzothiadiazol-5-ylmethyl-3-[2-(4-methoxy-benzyl)-2H-tetrazol-5-yl]-benzamide] | 207 to 208
COc1ccc(Cn2nnc(-c3cccc(C(=O)NCc4ccnc(OC)c4)c3)n2)cc1 [Example 16, 3-[2-(4-Methoxy-benzyl)-2H-tetrazol-5-yl]-N-(2-methoxy-pyridin-4-ylmethyl)-benzamide] | 166 to 169
COc1ccc(Cn2nnc(-c3cccc(C(=O)NCc4ccccc4)c3)n2)cc1 [Example 17, N-Benzyl-3-[2-(4-methoxy-benzyl)-2H-tetrazol-5-yl]-benzamide] | 169 to 170
COc1ccc(Cn2nnc(-c3cccc(C(=O)NCc4ccncc4)c3)n2)cc1 [Example 18, 3-[2-(4-Methoxy-benzyl)-2H-tetrazol-5-yl]-N-pyridin-4-ylmethyl-benzamide] | 163 to 164
COc1ccc(CNC(=O)c2cccc(-c3nnn(Cc4ccc(OC)cc4)n3)c2)cc1 [Example 26, N-(4-Methoxy-benzyl)-3-[2-(4-methoxy-benzyl)-2H-tetrazol-5-yl]-benzamide] | 159 to 160
C/C=C/Cn1nnc(-c2cccc(C(=O)NCc3ccccc3)c2)n1 [Example 27, N-Benzyl-3-(2-but-2-enyl-2H-tetrazol-5-yl)-benzamide] | 100 to 101
N#Cc1ccc(Cn2nnc(-c3cccc(C(=O)NCc4ccccc4)c3)n2)cc1 [Example 29, N-Benzyl-3-[2-(4-cyano-benzyl)-2H-tetrazol-5-yl]-benzamide] | 191 to 192
COC(=O)c1ccc(CNC(=O)c2cc(-c3nnn(Cc4ccc(OC)cc4)n3)ccc2OC)cc1 [Example 35] | 177 to 178
COc1ccc(Cn2nnc(-c3ccc(OC)c(C(=O)NCc4ccc(C(=O)O)cc4)c3)n2)cc1 [Example 36, 4-({2-Methoxy-5-[2-(4-methoxy-benzyl)-2H-tetrazol-5-yl]-benzoylamino}-methyl)-benzoic acid] | 207 to 209
